# Assays:
# [1] = target: Carbonic anhydrase 2 (Homo sapiens) (UniProt P00918)
# Description: Inhibition of human carbonic anhydrase-2
# [2] = target: Carbonic anhydrase 9 (Homo sapiens) (UniProt Q16790)
# Description: Inhibition of human carbonic anhydrase-9
SMILES,log(43000/Ki) [1],log(43000/Ki) [2]
NS(=O)(=O)Nc1ccc(NC(=O)NCc2ccco2)cc1,2.1,3.35
NS(=O)(=O)Nc1ccc(NC(=O)Nc2ccccc2-c2ccccc2)cc1,1.68,2.47
NS(=O)(=O)Nc1ccc(NC(=O)NC2CCCCC2)cc1,2.08,2.55
COc1ccc(C)cc1NC(=O)Nc1ccc(NS(N)(=O)=O)cc1,1.99,3.03
NS(=O)(=O)Nc1ccc(NC(=O)Nc2ccc(Cl)cc2)cc1,2.13,3
NS(=O)(=O)Oc1ccc(NC(=O)NC23CC4CC(CC(C4)C2)C3)cc1,1.96,3.31
CC(C)c1ccccc1NC(=O)Nc1ccc(NS(N)(=O)=O)cc1,1.8,2.64
Cc1cc(C)cc(NC(=O)Nc2ccc(NS(N)(=O)=O)cc2)c1,1.8,3.63
CCCCOc1ccc(NC(=O)Nc2ccc(NS(N)(=O)=O)cc2)cc1,2.14,3.43
CC(NC(=O)Nc1ccc(NS(N)(=O)=O)cc1)c1cccc2ccccc12 (stereo not drawn),2.02,3.35
NS(=O)(=O)Nc1ccc(NC(=O)NCc2ccccc2)cc1,2.47,3.63
NS(=O)(=O)Nc1ccc(NC(=O)NCCc2ccccc2)cc1,2.44,3.59
NS(=O)(=O)Nc1ccc(NC(=O)Nc2cccc([N+](=O)[O-])c2)cc1,2.01,3.43
COc1ccc(NC(=O)Nc2ccc(NS(N)(=O)=O)cc2)c(C)c1,2.14,3.31
